Test results from patent US20220226354A1, “GLP-1 SECRETION-PROMOTING COMPOSITION” (SUNTORY HOLDINGS LIMITED, priority 2019, published 2022).

What was measured:
H716 = assay: GLP-1 secretion amount of sweeteners, 24 hours (Experimental Example 1); assay type: cell-based, human; conditions: H716, 24 hours after addition of stock solution, PBS as negative control (no sample)
Method: RebA. RebB, RebM. RebN. RebD. RebC, MogV, and stevioside were examined for their GLP-1 secretion-promoting effects. Specifically, the amount of GLP-1 secretion was measured by the following procedures.
Each test substance B, C, D, E, F, G, I, or J was dissolved in PBS (Thermo Fisher Scientific Inc.) (Cat. No. 14190250) to obtain a stock solution. The concentration of the stock solution is shown below:
B (RebA); 5 mM, C (RebB); 1M, D (RebM); 2.5 mM, E (RebN); 1M, F (RebD); 2.5 mM, G (RebC); 2.5 mM, I (MogV); 1M, J(stevioside); 1M
H716 (ATCC) (Cat. No. ATCC®, CCL-251) was cultured in RPMI 1640 (10% FBS (Thermo Fisher Scientific Inc.) (Cat. No. 10439024), 1 mM Sodium Pyruvate) in an incubator at 37° C., 5% CO2.
The preculture was performed for 2 weeks, and the cells were sufficiently recovered, and then cell stocks were prepared.
Cells were seeded in 96-well plates at 2×10^5 cells/90 μL (high) per well (N=4). At this time, the content of FBS in the medium was lowered to 0.5% to suppress cell proliferation.
After 24 hours, the sample at the highest concentration (i.e., stock solution) was added by […] each.
After further 24 hours, quantitation of GLP-1 was performed. Specific procedures were followed the user guide of Human GLP-1 (7-36 amide) Immunoassay kit (Cat. No. AL359) (Lot number 2361115) provided by PerkinElmer, Inc. PBS was used as a negative control (no sample).

[1] = Dissolution of sample during sample preparation (Experimental Example 2); assay type: physicochemical; conditions: final concentration of 1.5 mM (#24), 1% DMSO-containing PBS
Method: To 20 mg of RebC, 21 μL of DMSO (manufactured by FUJIFILM Wako Pure Chemical Corporation, model number: 037-24053) was added. The mixture was then stirred by vortex and allowed to stand for several hours to obtain a stock solution having a RebC concentration of 1,000 mM. The obtained stock solution and PBS were used to prepare a 10 mM solution.
The 10 mM solution was diluted as needed with 1% DMSO-containing PBS to obtain Sample G-1 mM to Sample G-10 mM. The concentrations of RebC are described in Table 1.

Compound | amount of GLP-1 secretion compared with no sample (H716) | dissolution of sample [1]
C=C1C[C@@]23CC[C@H]4[C@@](C)(CCC[C@@]4(C)C(=O)O[C@@H]4O[C@H](CO)[C@@H](O)[C@H](O)[C@H]4O)[C@@H]2CC[C@]1(O[C@@H]1O[C@H](CO)[C@@H](O)[C@H](O)[C@H]1O[C@@H]1O[C@H](CO)[C@@H](O)[C@H](O)[C@H]1O)C3 [stevioside, Stevioside] | significantly larger amounts of GLP-1 secretion than no sample | –
C=C1C[C@@]23CC[C@H]4[C@@](C)(CCC[C@@]4(C)C(=O)O[C@@H]4O[C@H](CO)[C@@H](O)[C@H](O)[C@H]4O)[C@@H]2CC[C@]1(O[C@@H]1O[C@H](CO)[C@@H](O)[C@H](O[C@@H]2O[C@H](CO)[C@@H](O)[C@H](O)[C@H]2O)[C@H]1O[C@@H]1O[C@H](CO)[C@@H](O)[C@H](O)[C@H]1O)C3 [RebA, Rebaudioside A] | significantly larger amounts of GLP-1 secretion than no sample | –
C[C@H](CC[C@@H](O[C@@H]1O[C@H](CO[C@@H]2O[C@H](CO)[C@@H](O)[C@H](O)[C@H]2O)[C@@H](O)[C@H](O)[C@H]1O[C@@H]1O[C@H](CO)[C@@H](O)[C@H](O)[C@H]1O)C(C)(C)O)[C@H]1CC[C@@]2(C)[C@@H]3CC=C4[C@@H](CC[C@H](O[C@@H]5O[C@H](CO[C@@H]6O[C@H](CO)[C@@H](O)[C@H](O)[C@H]6O)[C@@H](O)[C@H](O)[C@H]5O)C4(C)C)[C@]3(C)[C@H](O)C[C@]12C [MogV, mogroside V] | significantly larger amounts of GLP-1 secretion than no sample | –
rebaudioside B [RebB] | significantly larger amounts of GLP-1 secretion than no sample | –
rebaudioside C [RebC] | significantly larger amounts of GLP-1 secretion than no sample | not able to be dissolved
